Patent publication US4108857A, “Imidazolylmethyl methanobenzazocines” (Sterling Drug Inc., priority 1977, dated 1978)
≈ marks a conversion by molar mass, not a printed value. Structures can show the parent of a compound that is named as a salt.

Legend:
[1] = system: maximal electroshock seizures; experiment: anti-maximal electroshock seizure test in mice; format: in vivo
Procedure: The preferred species of this invention, i.e. the compounds having in free base form Formula II, are useful as analgesic agents administered orally or parenterally to humans. […] In the anti-maximal electroshock seizure test, the compounds were administered intraperitoneally or perorally 30 or 90 minutes prior to the application of 50 milliamperes of alternating current through corneal electrodes. Shock duration was 0.3 second. The criterion for anticonvulsant activity was the absence of the tonic hind leg extensor component of the seizure. In the anti-maximal pentylenetetrazol seizure test, the compounds were given intraperitoneally 30 or 90 minutes prior to the rapid intravenous injection of 50 mg. per kg. of pentylenetetrazol. Failure to display tonic hind leg extensor seizures was again the criterion for drug action. Representative results, expressed as ED50 (mg./kg.), which were obtained with my new compounds in these two tests are as follows: […]

[2] = system: maximal pentylenetetrazol seizures; experiment: anti-maximal pentylenetetrazol seizure test in mice; format: in vivo; settings: for ED50: Mus musculus
[3] = pH of solution; format: physicochemical; settings: for pH of 1 percent aqueous solution: 1 percent solution (Example 26 as dihydrochloride, Example 32 as such, others as hydrochloride)
[4] = precipitation on gradual pH adjustment of the aqueous solution; format: physicochemical; settings: for pH at which a precipitate formed: addition of N/10 sodium hydroxide solution to aqueous solution of hydrochloride; for precipitation on adjusting to pH 7.0: 1 percent solution
[5] = solubility in water or aqueous acid; settings: for solubility: water
[6] = solubility in 95 percent ethyl alcohol; settings: for solubility: 95% ethanol, organic solvent or mixture
[7] = system: mice; experiment: inclined screen test in mice (skeletal muscle relaxation); format: in vivo; settings: 100 mg./kg. subcutaneously, mice
[8] = precipitation on diluting ethyl alcohol solution with four volumes of water; format: physicochemical; settings: 5 percent (w/v) solution in 95 percent ethyl alcohol
[9] = system: humans; experiment: analgesic use in humans; format: in vivo
Procedure: For example, administered orally, the effective dosage of the racemic cis form of this compound in humans has been determined to be about 0.1 to 0.5 mg. of drug per kg. of body weight per day, at 5-25 mg. per dose; preferably about 0.2 to 0.4 mg./kg./day, for instance a total of […] at 20 mg./dose.

[10] = one entry spanning PO 30' and 90'

C[C@H]1[C@H]2Cc3ccccc3[C@]1(C)CCN2CC1CCCC1 (relative stereo) [Example 6, racemic 1,2,3,4,5,6-hexahydro-3-cyclopentylmethyl-cis-6,11-dimethyl-2,6-methano-3-benzazocine]
Anti-Maximal Electroshock ED50 ([1]; one entry spanning PO and IP, 30' and 90'): INACTIVE
ED50 ([2]; 0.5 h, IP, 30'): 11.7 ± 2 mg/kg
ED50 ([2]; 1.5 h, IP, 90'): 8 ± 3 mg/kg
Anti-Maximal Pentylenetetrazol ED50 [2, 10]: INACTIVE
pH of 1 percent aqueous solution [3]: 6.2
pH at which a precipitate formed [4]: 6.3
solubility [5]: 10 mg/mL (≈ 35.3 mM)

CC[C@]12CCN(CC3CC3)[C@H](Cc3ccccc31)[C@@H]2C (relative stereo) [Example 3, 1,2,3,4,5,6-hexahydro-3-cyclopropylmethyl-cis-(6-ethyl-11-methyl)-2,6-methano-3-benzazocine]
pH of 1 percent aqueous solution [3]: 5.6
pH at which a precipitate formed [4]: 6.5
solubility [5]: 200 mg/mL (≈ 742 mM)

C[C@@H]1[C@H]2Cc3ccccc3[C@]1(C)CCN2CC1CC1 (relative stereo) [Example 2, racemic 1,2,3,4,5,6-hexahydro-3-cyclopropylmethyl-trans-6,11-dimethyl-2,6-methano-3-benzazocine]
solubility [5]: < 2.5 mg/mL
solubility [6]: < 10 mg/mL

C[C@H]1[C@H]2Cc3ccccc3[C@]1(C)CCN2Cc1cncn1C (relative stereo) [Example 37, racemic 1,2,3,4,5,6-hexahydro-3-(1-methylimidazol-5-yl)methyl-cis-6,11-dimethyl-2,6-methano-3-benzazocine]
side-effect in the inclined screen test [7]: CNS stimulation
skeletal muscle relaxant activity in the inclined screen test ([7]; 30 or 60 minutes): active
precipitation on dilution with four volumes of water [8]: precipitated
solubility [5]: < 2.5 mg/mL
solubility [6]: 50 mg/mL (≈ 169 mM)

C[C@H]1[C@H]2Cc3ccccc3[C@]1(C)CCN2CC1CCCO1 (stereo partly drawn) [Example 28, 1,2,3,4,5,6-hexahydro-3-(tetrahydro-2-furylmethyl)-cis-6,11-dimethyl-2,6-methano-3-benzazocine]
solubility [5]: < 2.5 mg/mL
solubility [6]: 50 mg/mL (≈ 175 mM)

C[C@H]1[C@H]2Cc3ccccc3[C@]1(C)CCN2CC1CC(C)(C)C1 (relative stereo) [Example 5, racemic 1,2,3,4,5,6-hexahydro-3-(3,3-dimethylcyclobutylmethyl)-cis-6,11-dimethyl-2,6-methano-3-benzazocine]
pH of 0.5 percent aqueous solution ([3]; hydrochloride, 0.5 percent): 6.8
pH at which a precipitate formed [4]: 6.8
precipitation on dilution with four volumes of water [8]: a precipitate formed
solubility [5]: 5 mg/mL (≈ 16.8 mM)
solubility [6]: 50 mg/mL (≈ 168 mM)

C[C@H]1[C@H]2Cc3ccccc3[C@]1(C)CCN2CCCN (relative stereo) [Example 26, racemic 1,2,3,4,5,6-hexahydro-3-(3-aminopropyl)-cis-6,11-dimethyl-2,6-methano-3-benzazocine]
pH of 1 percent aqueous solution [3]: 6.6
precipitation on adjusting to pH 7.0 ([4]; N/10 sodium hydroxide solution): no precipitate was formed
solubility [5]: 200 mg/mL (≈ 774 mM)

CC1[C@@H]2Cc3ccccc3[C@@]1(C)CCN2CC1CCC1 (mixture of isomers) [Example 4, racemic 1,2,3,4,5,6-hexahydro-3-cyclobutylmethyl-cis-6,11-dimethyl-2,6-methano-3-benzazocine]
Anti-Maximal Electroshock ED50 ([1]; IP, 30', 30 min): 30.5 ± 5.8 mg/kg
Anti-Maximal Electroshock ED50 ([1]; IP, 90'): INACT.
Anti-Maximal Electroshock ED50 [1, 10]: inact.
Anti-Maximal Pentylenetetrazol ED50 ([2]; IP, 30', 30 min): 13.2 ± 3 mg/kg
Anti-Maximal Pentylenetetrazol ED50 ([2]; IP, 90', 90 min): 26.2 ± 8.1 mg/kg
Anti-Maximal Pentylenetetrazol ED50 ([2]; PO, 30'): INACT.
Anti-Maximal Pentylenetetrazol ED50 ([2]; PO, 90', 90 min): 25.8 ± 7 mg/kg
pH of ethyl alcohol solution diluted with four volumes of water ([3]; hydrochloride, 5 percent (w/v) in 95 percent ethyl alcohol, then diluted): 6.1
precipitation on dilution with four volumes of water [8]: no precipitate formed
solubility of hydrochloride in water ([5]; hydrochloride): less than 0.25%
solubility of hydrochloride in 95 percent ethyl alcohol [6]: 5 percent (w/v)

C[C@H]1[C@H]2Cc3ccccc3[C@]1(C)CCN2C(=O)c1cccnc1 (relative stereo) [Example 34, racemic 1,2,3,4,5,6-hexahydro-3-nicotinoyl-cis-6,11-dimethyl-2,6-methano-3-benzazocine]
pH of 1 percent aqueous solution [3]: 2.7
pH at which a precipitate formed [4]: 3.0
solubility [5]: 200 mg/mL (≈ 653 mM)

COC(CN1CC[C@@]2(C)c3ccccc3C[C@@H]1[C@@H]2C)OC (relative stereo) [Example 39, racemic 1,2,3,4,5,6-hexahydro-3-(2,2-dimethoxyethyl)cis-6,11-dimethyl-2,6-methano-3-benzazocine]
pH of 1 percent aqueous solution [3]: 5.9
precipitation on adjusting to pH 7.0 ([4]; N/10 sodium hydroxide solution): no precipitate formed
solubility [5]: 200 mg/mL (≈ 691 mM)

C[C@H]1[C@H]2Cc3ccccc3[C@]1(C)CCN2CCc1c[nH]c2ccccc12 (relative stereo) [Example 30, racemic 1,2,3,4,5,6-hexahydro-3-[2-(3-indolyl)ethyl]-cis-6,11-dimethyl-2,6-methano-3-benzazocine]
solubility [5]: < 2.5 mg/mL
solubility of hydrochloride in 95 percent ethyl alcohol [6]: less than one

CC(C)=CCN1CC[C@@]2(C)c3ccccc3C[C@@H]1[C@@H]2C (relative stereo) [Example 10, racemic 1,2,3,4,5,6-hexahydro-3-(3-methyl-2-butenyl)-cis-6,11-dimethyl-2,6-methano-3-benzazocine]
pH of 1 percent aqueous solution [3]: 6.1
precipitation on adjusting to pH 7.0 ([4]; N/10 sodium hydroxide solution): no precipitate was formed
solubility [5]: 200 mg/mL (≈ 742 mM)

CCCCNC(=O)N1CC[C@@]2(C)c3ccccc3C[C@@H]1[C@@H]2C (relative stereo) [Example 32, racemic 1,2,3,4,5,6-hexahydro-3-(n-butylcarbamyl)-cis-6,11-dimethyl-2,6-methano-3-benzazocine]
pH of 1 percent aqueous solution [3]: 9.2
precipitation on adjusting to pH 7.0 ([4]; N/10 hydrochloric acid solution): no precipitate was formed
solubility [5]: 200 mg/mL (≈ 666 mM)

C[C@H]1[C@H]2Cc3ccccc3[C@]1(C)CCN2CCC(=O)O (relative stereo) [Example 24, racemic 1,2,3,4,5,6-hexahydro-3-(2-carboxyethyl)-cis-6,11-dimethyl-2,6-methano-3-benzazocine hydrochloride]
pH of 1 percent aqueous solution [3]: 3.0
precipitation on adjusting to pH 7.0 ([4]; N/10 sodium hydroxide solution): no precipitate formed
solubility [5]: 100 mg/mL

CC[C@H]1[C@H]2Cc3ccccc3[C@]1(C)CCN2C (relative stereo) [racemic 1,2,3,4,5,6-hexahydro-3-methyl-cis-(6-methyl-11-ethyl)-2,6-methano-3-benzazocine]
pH of 1 percent aqueous solution [3]: 6.7
precipitation on adjusting to pH 7.0 ([4]; N/10 sodium hydroxide solution): no precipitate formed
solubility [5]: 50 mg/mL (≈ 218 mM)

CC1C2Cc3ccc(O)cc3C1(C)CCN2CC1CC1 (stereo not drawn) [1,2,3,4,5,6-hexahydro-3-cyclopropylmethyl-8-hydroxy-6,11-dimethyl-2,6-methano-3-benzazocine, reference compound]
psychotomimetic effects in humans ([9]; analgesically effective doses): significant incidence of psychotomimetic effects
analgesic activity in humans ([9]; humans): potent analgesic
